Measurements reported in PMC9151520 (Archives of Toxicology, 2022).
“And” between values parts separate entries of the source, which are not always exact repeats. Identical values can stand only once. Like-named read-outs stand apart in the source and are kept apart here.

How the values were obtained:
[1] = tested on: p53 signaling (p53RE-bla HCT-116 cells); assay: cells; assay type: cell-based
[2] = tested on: p53 signaling (p53RE-bla HCT-116 cells)
[3] = tested on: p53 signaling (p53RE-bla HCT-116 cells); remark: listed apart in the source
[4] = Homo sapiens, HCT-116, read-out: p53 activation EC50, cherry pick confirmation
[5] = Homo sapiens, HCT-116, read-out: p53 activation EC50, primary screening
[6] = Homo sapiens, HCT-116, read-out: p53 activation efficacy, cherry pick confirmation
[7] = Homo sapiens, HCT-116, read-out: p53 activation efficacy, primary screening
[8] = read-out: p53 activation EC50, cherry pick confirmation
[9] = read-out: p53 activation EC50, primary screening
[10] = read-out: Viability EC50, cherry pick confirmation
[11] = read-out: Viability EC50, primary screening

CC1=C(C(=O)Nc2ccccc2)S(=O)(=O)CCO1 [Oxycarboxin]
EC50 [1, 4]: 36.4 µM
EC50 [1, 5]: 21.2 µM
Emax [1, 6]: 82.6%
Emax [1, 7]: 76%
p53 activation EC50, cherry pick confirmation [2]: inactive
p53 activation EC50, primary screening [2]: inactive
p53 activation efficacy, cherry pick confirmation [2]: inactive
p53 activation efficacy, primary screening [2]: inactive
p53 activation EC50, cherry pick confirmation [3]: inactive
p53 activation EC50, primary screening [3]: inactive
p53 activation efficacy, cherry pick confirmation [3]: inactive
p53 activation efficacy, primary screening [3]: inactive
Viability EC50, cherry pick confirmation (p53RE-bla HCT-116 cells): inactive
Viability EC50, primary screening (p53RE-bla HCT-116 cells): inactive
Viability efficacy, cherry pick confirmation (p53RE-bla HCT-116 cells): inactive
Viability efficacy, primary screening (p53RE-bla HCT-116 cells): inactive

O=C(Nc1cccc(Cl)c1)OCC#CCCl [Barban]
EC50 [1, 4]: 32.3 µM
EC50 [1, 5]: 19 µM
Emax [1, 6]: 46.3%
Emax [1, 7]: 37.2%
p53 activation EC50, cherry pick confirmation [2]: inactive
p53 activation EC50, primary screening [2]: inactive
p53 activation efficacy, cherry pick confirmation [2]: inactive
p53 activation efficacy, primary screening [2]: inactive
p53 activation EC50, cherry pick confirmation [3]: inactive
p53 activation EC50, primary screening [3]: inactive
p53 activation efficacy, cherry pick confirmation [3]: inactive
p53 activation efficacy, primary screening [3]: inactive
Viability EC50, cherry pick confirmation (p53RE-bla HCT-116 cells): inactive
Viability EC50, primary screening (p53RE-bla HCT-116 cells): inactive
Viability efficacy, cherry pick confirmation (p53RE-bla HCT-116 cells): inactive
Viability efficacy, primary screening (p53RE-bla HCT-116 cells): inactive

N#CSCSC#N [Methylene bis(thiocyanate)]
p53 activation efficacy, cherry pick confirmation [1]: 39.736
p53 activation efficacy, primary screening [1]: 49.8917
EC50 [1, 8]: 10.1 µM
EC50 [1, 9]: 11.8 µM
p53 activation EC50, cherry pick confirmation [2]: inactive
p53 activation EC50, primary screening [2]: inactive
p53 activation efficacy, cherry pick confirmation [2]: inactive
p53 activation efficacy, primary screening [2]: inactive
p53 activation EC50, cherry pick confirmation [3]: inactive
p53 activation EC50, primary screening [3]: inactive
p53 activation efficacy, cherry pick confirmation [3]: inactive
p53 activation efficacy, primary screening [3]: inactive
EC50 (p53RE-bla HCT-116 cells; [10]): 38.1 µM and 36 µM and 40.4 µM
EC50 (p53RE-bla HCT-116 cells; [11]): 39.6 µM and 47 µM and 35.4 µM

Nc1cc(Cl)c(-c2cc(Cl)c(N)cc2Cl)cc1Cl [2,2',5,5'-Tetrachlorobenzidine]
p53 activation efficacy, cherry pick confirmation [1]: 92.1083
p53 activation efficacy, primary screening [1]: 80.5693
EC50 [1, 8]: 36.2 µM
EC50 [1, 9]: 17.8 µM
p53 activation EC50, cherry pick confirmation [2]: inactive
p53 activation EC50, primary screening [2]: inactive
p53 activation efficacy, cherry pick confirmation [2]: inactive
p53 activation efficacy, primary screening [2]: inactive
p53 activation EC50, cherry pick confirmation [3]: inactive
p53 activation EC50, primary screening [3]: inactive
p53 activation efficacy, cherry pick confirmation [3]: inactive
p53 activation efficacy, primary screening [3]: inactive
Viability EC50, cherry pick confirmation (p53RE-bla HCT-116 cells): inactive
EC50 (p53RE-bla HCT-116 cells; [10]): 49.4 µM and 51.3 µM
EC50 (p53RE-bla HCT-116 cells; [11]): 49.5 µM (2×) and 37.5 µM

Oc1ccc(Oc2ccccc2)cc1 [4-Phenoxyphenol]
EC50, p53 activation, cherry pick confirmation [1]: inactive
Efficacy, p53 activation, cherry pick confirmation [1]: inactive
EC50 ([1]; Homo sapiens, HCT-116, read-out: EC50, p53 activation, primary screening): 25.6 µM
Emax ([1]; Homo sapiens, HCT-116, read-out: Efficacy, p53 activation, primary screening): 32.4%
EC50, p53 activation, cherry pick confirmation [2]: inactive
EC50, p53 activation, primary screening [2]: inactive
Efficacy, p53 activation, cherry pick confirmation [2]: inactive
Efficacy, p53 activation, primary screening [2]: inactive
EC50, p53 activation, cherry pick confirmation [3]: inactive
EC50, p53 activation, primary screening [3]: inactive
Efficacy, p53 activation, cherry pick confirmation [3]: inactive
Efficacy, p53 activation, primary screening [3]: inactive
EC50, viability, cherry pick confirmation (p53RE-bla HCT-116 cells): inactive
EC50, viability, primary screening (p53RE-bla HCT-116 cells): inactive
Efficacy, viability, cherry pick confirmation (p53RE-bla HCT-116 cells): inactive
Efficacy, viability, primary screening (p53RE-bla HCT-116 cells): inactive

C=C(CC)C(=O)c1ccc(OCC(=O)O)c(Cl)c1Cl [Ethacrynic acid]
p53 activation EC50, cherry pick confirmation [1]: inactive
p53 activation efficacy, cherry pick confirmation [1]: inactive
EC50 [1, 5]: 8.57 µM
Emax [1, 7]: 27.2%
p53 activation EC50, cherry pick confirmation [2]: inactive
p53 activation EC50, primary screening [2]: inactive
p53 activation efficacy, cherry pick confirmation [2]: inactive
p53 activation efficacy, primary screening [2]: inactive
p53 activation EC50, cherry pick confirmation [3]: inactive
p53 activation EC50, primary screening [3]: inactive
p53 activation efficacy, cherry pick confirmation [3]: inactive
p53 activation efficacy, primary screening [3]: inactive
Viability EC50, cherry pick confirmation (p53RE-bla HCT-116 cells): inactive
Viability EC50, primary screening (p53RE-bla HCT-116 cells): inactive
Viability efficacy, cherry pick confirmation (p53RE-bla HCT-116 cells): inactive
Viability efficacy, primary screening (p53RE-bla HCT-116 cells): inactive

Tannic acid
p53 activation efficacy, cherry pick confirmation [1]: 97.9477
p53 activation efficacy, primary screening [1]: 41.698
EC50 [1, 8]: 7.77 µM
p53 activation EC50, cherry pick confirmation [2]: inactive
p53 activation EC50, primary screening [2]: inactive
p53 activation efficacy, cherry pick confirmation [2]: inactive
p53 activation efficacy, primary screening [2]: inactive
p53 activation EC50, cherry pick confirmation [3]: inactive
p53 activation EC50, primary screening [3]: inactive
p53 activation efficacy, cherry pick confirmation [3]: inactive
p53 activation efficacy, primary screening [3]: inactive
Viability EC50, cherry pick confirmation (p53RE-bla HCT-116 cells): inactive
Viability EC50, primary screening (p53RE-bla HCT-116 cells): inactive
Viability efficacy, cherry pick confirmation (p53RE-bla HCT-116 cells): inactive
Viability efficacy, primary screening (p53RE-bla HCT-116 cells): inactive
